Data published in BindingDB's records for doi:10.1021/jm991038t (Max-Planck Research Unit, 1999).

Assay: Inhibition constant(Ki) for inhibition of PPIase activity of Legionella pneumophilia FK506 binding protein 25 (Conc=40 nM) of FKBPs family

C[C@@H]1C[C@@H]([C@H](O)CC2CC(=O)NC(=O)C2)C(=O)[C@@H](C)C1 [Cycloheximid]
Ki: 124 µM
